Experimental data published in ChEMBL document CHEMBL1759962, “Anti-inflammatory effect of soyasaponins through suppressing nitric oxide production in LPS-stimulated RAW 264.7 cells by attenuation of NF-κB-mediated nitric oxide synthase expression” (Bioorg Med Chem Lett, 2011).
Active and inactive are the calls of the source. The calls are words filed in the database; no cut-off is given here.

Experiments:
RAW264.7 [1] = assay: Cytotoxicity against mouse RAW264.7 cells at 25 to 200 ug/ml after 24 hrs by MTT assay; type: cell-based; conditions: raw264.7, 24 h
[2] = biological target: T1, Nitric oxide synthase, inducible (Mus musculus) (UniProt P29477); assay: Inhibition of iNOS activity in LPS-stimulated mouse RAW264.7 cells assessed as conversion of L-[…] arginine to L-[3H] citruline per mg of protein at 200 ug/ml after 24 hrs; type: cell-based
T1 sequence (whole entry): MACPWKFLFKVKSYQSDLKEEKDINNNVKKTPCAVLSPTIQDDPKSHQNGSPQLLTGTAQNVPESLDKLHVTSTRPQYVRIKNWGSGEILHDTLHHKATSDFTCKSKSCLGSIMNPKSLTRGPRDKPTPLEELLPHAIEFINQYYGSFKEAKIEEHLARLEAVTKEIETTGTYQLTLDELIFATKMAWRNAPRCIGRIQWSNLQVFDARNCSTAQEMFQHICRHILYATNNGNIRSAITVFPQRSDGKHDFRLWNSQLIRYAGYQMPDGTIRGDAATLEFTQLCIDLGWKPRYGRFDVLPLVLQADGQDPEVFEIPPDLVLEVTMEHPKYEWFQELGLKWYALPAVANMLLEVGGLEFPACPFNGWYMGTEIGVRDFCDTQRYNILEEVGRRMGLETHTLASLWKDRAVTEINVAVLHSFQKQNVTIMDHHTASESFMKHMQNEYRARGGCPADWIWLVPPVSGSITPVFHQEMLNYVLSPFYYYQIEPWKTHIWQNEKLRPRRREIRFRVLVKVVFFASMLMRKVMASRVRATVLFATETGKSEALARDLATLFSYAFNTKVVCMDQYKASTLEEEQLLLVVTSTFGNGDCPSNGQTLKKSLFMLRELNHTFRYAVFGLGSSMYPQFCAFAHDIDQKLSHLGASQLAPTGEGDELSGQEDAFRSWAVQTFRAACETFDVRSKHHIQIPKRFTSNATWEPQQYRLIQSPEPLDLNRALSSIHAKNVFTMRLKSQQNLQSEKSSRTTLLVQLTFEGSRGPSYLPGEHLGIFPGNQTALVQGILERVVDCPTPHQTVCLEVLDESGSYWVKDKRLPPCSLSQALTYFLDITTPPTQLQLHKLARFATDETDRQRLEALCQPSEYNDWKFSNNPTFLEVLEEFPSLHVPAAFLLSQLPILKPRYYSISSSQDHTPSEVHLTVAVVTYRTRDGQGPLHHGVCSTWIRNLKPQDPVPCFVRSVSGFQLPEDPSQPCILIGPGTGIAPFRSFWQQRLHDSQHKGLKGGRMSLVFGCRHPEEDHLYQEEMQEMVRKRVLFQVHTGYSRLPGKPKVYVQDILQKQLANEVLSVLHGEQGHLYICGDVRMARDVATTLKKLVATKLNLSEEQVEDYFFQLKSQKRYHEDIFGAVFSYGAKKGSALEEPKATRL

[3] = biological target: T1, Nitric oxide synthase, inducible (Mus musculus); assay: Inhibition of iNOS activity in LPS-stimulated mouse RAW264.7 cells assessed as conversion of L-[…] arginine to L-[3H] citruline per mg of protein at 100 ug/ml after 24 hrs; type: cell-based
[4] = biological target: T1, Nitric oxide synthase, inducible (Mus musculus); assay: Inhibition of iNOS activity in LPS-stimulated mouse RAW264.7 cells assessed as conversion of L-[…] arginine to L-[3H] citruline per mg of protein at 50 ug/ml after 24 hrs; type: cell-based
[5] = biological target: T1, Nitric oxide synthase, inducible (Mus musculus); assay: Inhibition of iNOS activity in LPS-stimulated mouse RAW264.7 cells assessed as conversion of L-[…] arginine to L-[3H] citruline per mg of protein at 25 ug/ml after 24 hrs; type: cell-based
RAW264.7 [6] = assay: Inhibition of iNOS mRNA expression in LPS-stimulated mouse RAW264.7 cells at 25 ug/ml after 24 hrs by real time fluorescent quantitative real time PCR relative to negative control; type: functional
RAW264.7 [7] = assay: Inhibition of iNOS mRNA expression in LPS-stimulated mouse RAW264.7 cells at 50 ug/ml after 24 hrs by real time fluorescent quantitative real time PCR relative to negative control; type: functional
RAW264.7 [8] = assay: Inhibition of iNOS mRNA expression in LPS-stimulated mouse RAW264.7 cells at 100 ug/ml after 24 hrs by real time fluorescent quantitative real time PCR relative to negative control; type: functional
RAW264.7 [9] = assay: Inhibition of iNOS mRNA expression in LPS-stimulated mouse RAW264.7 cells at 200 ug/ml after 24 hrs by real time fluorescent quantitative real time PCR relative to negative control; type: functional
RAW264.7 [10] = assay: Antiinflammatory activity in mouse RAW264.7 cells assessed as inhibition of LPS-induced TNFalpha release by ELISA; type: functional, cell-based
RAW264.7 [11] = assay: Antiinflammatory activity in mouse RAW264.7 cells assessed as inhibition of LPS-induced IL-6 release by ELISA; type: functional, cell-based
RAW264.7 [12] = assay: Antiinflammatory activity in mouse RAW264.7 cells assessed as inhibition of LPS-induced IL-1 release by ELISA; type: functional, cell-based
[13] = biological target: T1, Nitric oxide synthase, inducible (Mus musculus); assay: Inhibition of iNOS-mediated nitric oxide production in LPS-stimulated mouse RAW264.7 cells at 25 to 200 ug/ml measured after 24 hrs by Griess reaction method; type: cell-based
[14] = biological target: T1, Nitric oxide synthase, inducible (Mus musculus); assay: Inhibition of iNOS-mediated nitric oxide production in LPS-stimulated mouse RAW264.7 cells at 10 ug/ml measured after 24 hrs by Griess reaction method; type: cell-based
[15] = biological target: T1, Nitric oxide synthase, inducible (Mus musculus); assay: Inhibition of iNOS activity in LPS-stimulated mouse RAW264.7 cells assessed as conversion of L-[…] arginine to L-[3H] citruline per mg of protein at 10 ug/ml after 24 hrs; type: cell-based
[16] = biological target: T1, Nitric oxide synthase, inducible (Mus musculus); assay: Inhibition of iNOS-mediated nitric oxide production in LPS-stimulated mouse RAW264.7 cells measured after 24 hrs by Griess reaction method; type: cell-based
[17] = biological target: T1, Nitric oxide synthase, inducible (Mus musculus); assay: Inhibition of iNOS activity in LPS-stimulated mouse RAW264.7 cells assessed as conversion of L-[…] arginine to L-[3H] citruline per mg of protein after 24 hrs; type: cell-based
RAW264.7 [18] = assay: Inhibition of LPS-induced NF-kappaB activation in mouse RAW264.7 cells expressing pNF-kappaB-LUC at 25 to 200 ug/ml after 24 hrs by luciferase reporter gene assay relative to unstimulated cells; type: cell-based

Row | Compound | Activity (RAW264.7 [1]) | Activity [2] [pmol/min] | Activity [3] [pmol/min] | Activity [4] [pmol/min] | Activity [5] [pmol/min] | fold change (FC) (RAW264.7 [6]) | fold change (FC) (RAW264.7 [7]) | fold change (FC) (RAW264.7 [8]) | fold change (FC) (RAW264.7 [9]) | inhibition (RAW264.7 [10]) | inhibition (RAW264.7 [11]) | inhibition (RAW264.7 [12]) | inhibition [13] | inhibition [14] | Activity [15] [pmol/min] | inhibition [16] | inhibition [17] | inhibition (RAW264.7 [18])
1 | CC1(C)C[C@@H](O)[C@]2(C)CC[C@]3(C)C(=CC[C@@H]4[C@@]5(C)CC[C@H](O)[C@](C)(CO)[C@@H]5CC[C@]43C)[C@@H]2C1 [SOYASAPOGENOL B] | Non-toxic | 27.1 | 26.6 | 26.5 | 27.4 | 14.7 | 14.8 | 14.7 | 15.4 | inactive | inactive | inactive | inactive |  |  |  |  | 
2 | N=C(N)NN |  |  |  |  |  |  |  |  |  |  |  |  |  | inactive | 2.7 |  |  | 
3 | C[C@@H]1O[C@@H](O[C@H]2[C@H](O[C@H]3[C@H](O[C@H]4CC[C@@]5(C)[C@@H](CC[C@]6(C)[C@@H]5CC=C5[C@@H]7CC(C)(C)C[C@@H](O)[C@]7(C)CC[C@]56C)[C@@]4(C)CO)O[C@H](C(=O)O)[C@@H](O)[C@@H]3O)O[C@H](CO)[C@H](O)[C@@H]2O)[C@H](O)[C@H](O)[C@H]1O [SOYASAPONIN I] | Non-toxic | 9.2 | 11.7 | 16.6 | 24 | 11.1 | 8.8 | 6.8 | 5.6 | Active | inactive | inactive |  |  |  | Dose-dependent effect | Dose-dependent effect | Dose-dependent effect
4 | CC1(C)C[C@H]2C3=CC[C@@H]4[C@@]5(C)CC[C@H](O)[C@](C)(CO)[C@@H]5CC[C@@]4(C)[C@]3(C)CC[C@@]2(C)[C@H](O)[C@@H]1O [SOYASAPOGENOL A] | Non-toxic | 27 | 26.9 | 27 | 27.7 | 15.1 | 15 | 15.1 | 15.3 | inactive | inactive | inactive | inactive |  |  |  |  | 
5 | CC1(C)C[C@H]2C3=CC[C@@H]4[C@@]5(C)CC[C@H](O[C@@H]6O[C@H](C(=O)O)[C@@H](O)[C@H](O)[C@H]6O[C@@H]6O[C@H](CO)[C@@H](O)[C@@H](O)[C@H]6O)[C@](C)(CO)[C@@H]5CC[C@@]4(C)[C@]3(C)CC[C@@]2(C)[C@H](O[C@@H]2OC[C@H](O)[C@@H](O)[C@H]2O[C@@H]2O[C@H](CO)[C@@H](O)[C@@H](O)[C@H]2O)[C@@H]1O [SOYASAPONIN A2] | Non-toxic | 9.3 | 14 | 19 | 23.6 | 11.4 | 10.7 | 5.7 | 4.4 | Active | inactive | inactive |  |  |  | Dose-dependent effect | Dose-dependent effect | Dose-dependent effect
6 | CC1(C)C[C@H]2C3=CC[C@@H]4[C@@]5(C)CC[C@H](O[C@@H]6O[C@H](C(=O)O)[C@@H](O)[C@H](O)[C@H]6O[C@@H]6O[C@H](CO)[C@H](O)[C@H](O)[C@H]6O[C@@H]6O[C@H](CO)[C@@H](O)[C@H](O)[C@H]6O)[C@](C)(CO)[C@@H]5CC[C@@]4(C)[C@]3(C)CC[C@@]2(C)[C@H](O[C@@H]2OC[C@H](O)[C@@H](O)[C@H]2O[C@@H]2O[C@H](CO)[C@@H](O)[C@@H](O)[C@H]2O)[C@@H]1O [SOYASAPONIN A1] | Non-toxic | 6.2 | 11.4 | 18.3 | 22.3 | 11.6 | 11.3 | 7.5 | 5.1 | Active | inactive | inactive |  |  |  | Dose-dependent effect | Dose-dependent effect | Dose-dependent effect
